The IC50 is the midpoint of a concentration-inhibition curve.

The experiment concerns the target T1, Cholesteryl ester transfer protein (Homo sapiens, UniProt P11597).
T1 sequence (P11597 whole entry): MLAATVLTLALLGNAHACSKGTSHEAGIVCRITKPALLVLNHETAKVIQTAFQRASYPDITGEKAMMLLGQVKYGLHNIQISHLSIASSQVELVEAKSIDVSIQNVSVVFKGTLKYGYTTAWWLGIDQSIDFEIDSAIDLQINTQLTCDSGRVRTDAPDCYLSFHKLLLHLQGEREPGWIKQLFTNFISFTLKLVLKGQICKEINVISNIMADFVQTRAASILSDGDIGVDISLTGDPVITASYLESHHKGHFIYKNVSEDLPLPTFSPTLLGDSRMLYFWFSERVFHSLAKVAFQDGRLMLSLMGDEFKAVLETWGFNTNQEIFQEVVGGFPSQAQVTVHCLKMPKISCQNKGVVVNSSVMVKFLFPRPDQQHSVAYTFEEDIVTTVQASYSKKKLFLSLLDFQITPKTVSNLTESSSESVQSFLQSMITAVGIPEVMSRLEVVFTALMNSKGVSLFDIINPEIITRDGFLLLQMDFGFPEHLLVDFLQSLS
Kind of experiment: Inhibition of human CETP by scintillation proximity assay. For orientation: Scintillation proximity formats need no separation of bound from free tracer.

For the compound `Cc1cc(C)cc(OCC(=O)Nc2ccc(-c3nc4cc(C)cc(C)c4o3)cc2)c1`, the IC50 is > 10 µM.

Regarding `Cc1cc(C)c2oc(-c3ccc(NC(=O)COc4ccc(C#N)cc4)cc3)nc2c1`, the IC50 is > 10 µM.

On to `Cc1ccccc1OCC(=O)Nc1ccc(-c2nc3cccc(C(=O)O)c3o2)cc1`, for which the IC50 was > 32 µM.

On to `COc1ccc2nc(-c3ccc(NC(=O)COc4ccccc4C)cc3)oc2c1`, for which the IC50 was > 32 µM.

Regarding `Cc1cc(C)c2oc(-c3ccc(NC(=O)COc4ccccc4C#N)cc3)nc2c1`, the IC50 is > 10 µM.

With `Cc1ccc2nc(-c3ccc(NC(=O)COc4ccccc4C)cc3)oc2c1`, the IC50 was determined as 13 µM.

As to `Cc1ccccc1OCC(=O)Nc1ccc(-c2nc3cc(C(C)(C)C)ccc3o2)cc1`, the IC50 was > 32 µM.

As to `Cc1ccccc1OCC(=O)Nc1ccc(-c2nc3c([N+](=O)[O-])cccc3o2)cc1`, the IC50 is > 32 µM.

As to `Cc1ccc(C)c(OCC(=O)Nc2ccc(-c3nc4cc(C)cc(C)c4o3)cc2)c1`, the IC50 was > 10 µM.

`COC(=O)c1ccccc1OCC(=O)Nc1ccc(-c2nc3cc(C)cc(C)c3o2)cc1` returned an IC50 of 0.22 µM.

Regarding `COC(=O)c1cccc(OCC(=O)Nc2ccc(-c3nc4cc(C)cc(C)c4o3)cc2)c1`, the IC50 is > 10 µM.

In the case of `COc1ccccc1OCC(=O)Nc1ccc(-c2nc3cc(C)cc(C)c3o2)cc1`, the IC50 came out at 8.3 µM. This lies in the single-digit micromolar range.

For the compound `Cc1ccccc1OCC(=O)Nc1ccc(-c2nc3cc(F)ccc3o2)cc1`, the IC50 was > 32 µM.

`Cc1cc(C)c2oc(-c3ccc(NC(=O)COc4c(C)cccc4Cl)cc3)nc2c1`: the IC50 was > 10 µM.

As for `Cc1cc(C)c2oc(-c3ccc(NC(=O)COc4ccc(OC(F)(F)F)cc4)cc3)nc2c1`, the IC50 was > 10 µM.

`Cc1cc(C)c2oc(-c3ccc(NC(=O)COc4ccc(-c5ccccc5)cc4)cc3)nc2c1`: the IC50 is > 10 µM.

The compound `Cc1cc(C)c2oc(-c3ccc(NC(=O)COc4ccccc4OC(F)(F)F)cc3)nc2c1` returned an IC50 of 0.2 µM.

For `Cc1cc(C)c2oc(-c3ccc(NC(=O)COc4cccc(C#N)c4)cc3)nc2c1`, the IC50 was > 10 µM.

For the compound `Cc1cc(C)c2oc(-c3ccc(NC(=O)COc4ccccc4F)cc3)nc2c1`, the IC50 was > 10 µM.

With `Cc1ccccc1OCC(=O)Nc1ccc(-c2nc3ccc([N+](=O)[O-])cc3o2)cc1`, the IC50 was > 32 µM.

As to `Cc1cc(C)c2oc(-c3ccc(NC(=O)COc4cc(Cl)ccc4Cl)cc3)nc2c1`, the half-maximal inhibitory concentration (IC50) was > 10 µM.

As to `Cc1ccccc1OCC(=O)Nc1ccc(-c2nc3ccc(Cl)cc3o2)cc1`, the IC50 is > 32 µM.

Take `COC(=O)c1ccc2oc(-c3ccc(NC(=O)COc4ccccc4C)cc3)nc2c1`: the IC50 is > 32 µM.

Take `Cc1ccccc1OCC(=O)Nc1ccc(-c2nc3ccc(N4CCCC4)cc3o2)cc1`: the IC50 was > 32 µM.

In the case of `COc1ccc2oc(-c3ccc(NC(=O)COc4ccccc4C)cc3)nc2c1`, the IC50 was > 32 µM.

As to `COC(=O)c1ccc2nc(-c3ccc(NC(=O)COc4ccccc4C)cc3)oc2c1`, the IC50 is > 32 µM.

For the compound `Cc1cc(C)c2oc(-c3ccc(NC(=O)COc4ccccc4-c4ccccc4)cc3)nc2c1`, the IC50 was determined as 3.3 µM.

In the case of `Cc1cc(C)c2oc(-c3ccc(NC(=O)COc4ccccc4Cl)cc3)nc2c1`, the IC50 was > 10 µM.

Turning to `Cc1ccccc1OCC(=O)Nc1ccc(-c2nc3c(C)cccc3o2)cc1`, the IC50 was > 32 µM.

Turning to `Cc1ccccc1OCC(=O)Nc1ccc(-c2nc3cc(C(=O)O)ccc3o2)cc1`, the IC50 is > 32 µM.

Take `Cc1cc(C)c2oc(-c3ccc(NC(=O)COc4c(Cl)cccc4Cl)cc3)nc2c1`: the IC50 is > 10 µM.

Turning to `COc1ccc(OCC(=O)Nc2ccc(-c3nc4cc(C)cc(C)c4o3)cc2)cc1`, the IC50 was > 10 µM.

In the case of `Cc1ccccc1OCC(=O)Nc1ccc(-c2nc3cc(-c4ccccc4)ccc3o2)cc1`, the IC50 came to 1.9 µM.

Take `Cc1cc(C)c2oc(-c3ccc(NC(=O)COc4ccc(C(F)(F)F)cc4)cc3)nc2c1`: the IC50 was > 10 µM.

`CCS(=O)(=O)c1ccc2oc(-c3ccc(NC(=O)COc4ccccc4C)cc3)nc2c1` yielded an IC50 of 9.3 µM.

Take `Cc1cc(C)c2oc(-c3ccc(NC(=O)COc4cccc(-c5ccccc5)c4)cc3)nc2c1`: the IC50 stood at 2.3 µM. This IC50 lies about 4-fold lower than the previous one.
